From the kinase profiling compilation of Christmann-Franck et al. (2016)

Target: TSSK2 (human) (UniProt Q96PF2)
Assay: radiometric filter-binding kinase assay, Kinase HotSpot
Conditions: compound 0.5 µM; ATP 10 µM

Row | SMILES | residual activity [%]
1 | O=C(Nc1ccc(Cl)cc1)c1ccccc1NCc1ccncc1 | 86.3
2 | Nc1nc(Nc2ccc(S(N)(=O)=O)cc2)nn1C(=S)Nc1c(F)cccc1F | 91.3
3 | O=C1Cc2c([nH]c3ccc([N+](=O)[O-])cc23)-c2ccccc2N1 | 88.3
4 | O=C1Nc2ccccc2/C1=C\c1c(Cl)[nH]c2ccccc12 | 113
5 | O=c1cc(N2CCNCC2)oc2c(-c3ccccc3)cccc12 | 101

Target: GRK4 (human) (UniProt P32298)
Assay: as above
Conditions: compound 0.5 µM; ATP 10 µM

Row | SMILES | residual activity [%]
6 | O=C(Nc1ccc(Cl)cc1)c1ccccc1NCc1ccncc1 | 96.8
7 | Nc1nc(Nc2ccc(S(N)(=O)=O)cc2)nn1C(=S)Nc1c(F)cccc1F | 92.2
8 | O=C1Cc2c([nH]c3ccc([N+](=O)[O-])cc23)-c2ccccc2N1 | 99.3
9 | O=C1Nc2ccccc2/C1=C\c1c(Cl)[nH]c2ccccc12 | 102
10 | O=c1cc(N2CCNCC2)oc2c(-c3ccccc3)cccc12 | 106

Target: CDK3 CCNE1 (human) (UniProt Q00526+P24864)
Sequence (P24864 whole entry, looked up): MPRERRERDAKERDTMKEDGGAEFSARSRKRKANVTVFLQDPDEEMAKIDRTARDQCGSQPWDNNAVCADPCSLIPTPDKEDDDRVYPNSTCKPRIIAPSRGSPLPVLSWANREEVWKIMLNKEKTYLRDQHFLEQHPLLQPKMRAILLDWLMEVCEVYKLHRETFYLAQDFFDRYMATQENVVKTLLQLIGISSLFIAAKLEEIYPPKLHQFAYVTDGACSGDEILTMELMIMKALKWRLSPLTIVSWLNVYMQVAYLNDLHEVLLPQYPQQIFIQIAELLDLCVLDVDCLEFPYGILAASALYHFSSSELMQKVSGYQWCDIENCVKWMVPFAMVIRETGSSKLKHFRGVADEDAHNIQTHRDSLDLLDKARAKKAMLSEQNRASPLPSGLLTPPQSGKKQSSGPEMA
Sequence (Q00526 whole entry, looked up): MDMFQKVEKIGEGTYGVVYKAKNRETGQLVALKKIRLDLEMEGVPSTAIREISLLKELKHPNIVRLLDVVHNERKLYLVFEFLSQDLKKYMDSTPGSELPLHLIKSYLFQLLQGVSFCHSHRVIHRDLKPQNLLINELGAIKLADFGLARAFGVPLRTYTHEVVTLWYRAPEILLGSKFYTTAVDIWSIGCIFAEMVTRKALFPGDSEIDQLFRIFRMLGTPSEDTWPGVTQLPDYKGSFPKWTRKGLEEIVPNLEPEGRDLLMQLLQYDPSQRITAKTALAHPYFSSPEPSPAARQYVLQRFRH
Assay: as above
Conditions: compound 0.5 µM; ATP 10 µM

Row | SMILES | residual activity [%]
11 | O=C(Nc1ccc(Cl)cc1)c1ccccc1NCc1ccncc1 | 87.4
12 | Nc1nc(Nc2ccc(S(N)(=O)=O)cc2)nn1C(=S)Nc1c(F)cccc1F | -0.912
13 | O=C1Cc2c([nH]c3ccc([N+](=O)[O-])cc23)-c2ccccc2N1 | 56.8
14 | O=C1Nc2ccccc2/C1=C\c1c(Cl)[nH]c2ccccc12 | 94.1
15 | O=c1cc(N2CCNCC2)oc2c(-c3ccccc3)cccc12 | 96.9

Target: CLK1 (human) (UniProt P49759)
Sequence (P49759 whole entry, looked up): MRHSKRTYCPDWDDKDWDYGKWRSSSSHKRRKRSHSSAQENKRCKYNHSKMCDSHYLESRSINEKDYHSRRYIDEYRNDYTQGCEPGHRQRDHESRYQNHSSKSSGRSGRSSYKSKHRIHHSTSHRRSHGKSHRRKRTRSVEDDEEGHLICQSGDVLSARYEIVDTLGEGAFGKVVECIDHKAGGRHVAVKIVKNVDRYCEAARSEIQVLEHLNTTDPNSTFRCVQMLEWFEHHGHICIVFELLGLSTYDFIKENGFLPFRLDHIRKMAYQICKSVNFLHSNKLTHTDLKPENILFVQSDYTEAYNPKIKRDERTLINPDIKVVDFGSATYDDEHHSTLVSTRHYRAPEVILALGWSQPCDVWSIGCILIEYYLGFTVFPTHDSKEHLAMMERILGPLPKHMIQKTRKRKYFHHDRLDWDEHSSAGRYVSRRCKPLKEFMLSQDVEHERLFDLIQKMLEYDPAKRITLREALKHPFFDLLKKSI
Assay: as above
Conditions: compound 0.5 µM; ATP 10 µM

Row | SMILES | residual activity [%]
16 | O=C(Nc1ccc(Cl)cc1)c1ccccc1NCc1ccncc1 | 102
17 | Nc1nc(Nc2ccc(S(N)(=O)=O)cc2)nn1C(=S)Nc1c(F)cccc1F | 2.26
18 | O=C1Cc2c([nH]c3ccc([N+](=O)[O-])cc23)-c2ccccc2N1 | 111
19 | O=C1Nc2ccccc2/C1=C\c1c(Cl)[nH]c2ccccc12 | 103
20 | O=c1cc(N2CCNCC2)oc2c(-c3ccccc3)cccc12 | 102

Target: BTK (human) (UniProt Q06187)
Assay: as above
Conditions: compound 0.5 µM; ATP 10 µM

Row | SMILES | residual activity [%]
21 | O=C(Nc1ccc(Cl)cc1)c1ccccc1NCc1ccncc1 | 98.9
22 | Nc1nc(Nc2ccc(S(N)(=O)=O)cc2)nn1C(=S)Nc1c(F)cccc1F | 84.1
23 | O=C1Cc2c([nH]c3ccc([N+](=O)[O-])cc23)-c2ccccc2N1 | 98.2
24 | O=C1Nc2ccccc2/C1=C\c1c(Cl)[nH]c2ccccc12 | 94.6
25 | O=c1cc(N2CCNCC2)oc2c(-c3ccccc3)cccc12 | 85.7

Target: CDK4 CCND1 (human) (UniProt P24385+P11802)
Sequence (P11802 whole entry, looked up): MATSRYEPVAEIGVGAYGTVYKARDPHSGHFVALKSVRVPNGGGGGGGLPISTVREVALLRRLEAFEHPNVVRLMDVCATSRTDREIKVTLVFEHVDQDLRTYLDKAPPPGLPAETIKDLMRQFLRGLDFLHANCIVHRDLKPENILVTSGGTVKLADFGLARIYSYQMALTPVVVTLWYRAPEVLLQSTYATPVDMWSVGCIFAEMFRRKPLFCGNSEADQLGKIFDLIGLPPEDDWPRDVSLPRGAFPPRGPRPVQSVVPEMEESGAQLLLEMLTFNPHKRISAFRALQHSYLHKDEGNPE
Sequence (P24385 whole entry, looked up): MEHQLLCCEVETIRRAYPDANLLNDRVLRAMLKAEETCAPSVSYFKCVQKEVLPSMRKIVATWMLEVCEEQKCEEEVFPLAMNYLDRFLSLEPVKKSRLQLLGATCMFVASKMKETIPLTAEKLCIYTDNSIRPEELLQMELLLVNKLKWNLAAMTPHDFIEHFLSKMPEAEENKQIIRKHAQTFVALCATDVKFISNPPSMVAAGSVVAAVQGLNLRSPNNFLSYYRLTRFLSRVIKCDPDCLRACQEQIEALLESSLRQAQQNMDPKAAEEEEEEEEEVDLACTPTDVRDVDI
Assay: as above
Conditions: compound 0.5 µM; ATP 10 µM

Row | SMILES | residual activity [%]
26 | O=C(Nc1ccc(Cl)cc1)c1ccccc1NCc1ccncc1 | 104
27 | Nc1nc(Nc2ccc(S(N)(=O)=O)cc2)nn1C(=S)Nc1c(F)cccc1F | 87.7
28 | O=C1Nc2ccccc2/C1=C\c1c(Cl)[nH]c2ccccc12 | 98.4
29 | O=c1cc(N2CCNCC2)oc2c(-c3ccccc3)cccc12 | 115

Target: MAPK8 (human) (UniProt P45983)
Assay: as above
Conditions: compound 0.5 µM; ATP 10 µM

Row | SMILES | residual activity [%]
30 | O=C(Nc1ccc(Cl)cc1)c1ccccc1NCc1ccncc1 | 109
31 | Nc1nc(Nc2ccc(S(N)(=O)=O)cc2)nn1C(=S)Nc1c(F)cccc1F | 78.8
32 | O=C1Cc2c([nH]c3ccc([N+](=O)[O-])cc23)-c2ccccc2N1 | 99.6
33 | O=C1Nc2ccccc2/C1=C\c1c(Cl)[nH]c2ccccc12 | 93.5
34 | O=c1cc(N2CCNCC2)oc2c(-c3ccccc3)cccc12 | 89.3

Target: STK4 (human) (UniProt Q13043)
Assay: as above
Conditions: compound 0.5 µM; ATP 10 µM

Row | SMILES | residual activity [%]
35 | O=C(Nc1ccc(Cl)cc1)c1ccccc1NCc1ccncc1 | 98.7
36 | Nc1nc(Nc2ccc(S(N)(=O)=O)cc2)nn1C(=S)Nc1c(F)cccc1F | 2.16
37 | O=C1Cc2c([nH]c3ccc([N+](=O)[O-])cc23)-c2ccccc2N1 | 52.3
38 | O=C1Nc2ccccc2/C1=C\c1c(Cl)[nH]c2ccccc12 | 91
39 | O=c1cc(N2CCNCC2)oc2c(-c3ccccc3)cccc12 | 88.7

Target: STK33 (human) (UniProt Q9BYT3)
Sequence (Q9BYT3 whole entry, looked up): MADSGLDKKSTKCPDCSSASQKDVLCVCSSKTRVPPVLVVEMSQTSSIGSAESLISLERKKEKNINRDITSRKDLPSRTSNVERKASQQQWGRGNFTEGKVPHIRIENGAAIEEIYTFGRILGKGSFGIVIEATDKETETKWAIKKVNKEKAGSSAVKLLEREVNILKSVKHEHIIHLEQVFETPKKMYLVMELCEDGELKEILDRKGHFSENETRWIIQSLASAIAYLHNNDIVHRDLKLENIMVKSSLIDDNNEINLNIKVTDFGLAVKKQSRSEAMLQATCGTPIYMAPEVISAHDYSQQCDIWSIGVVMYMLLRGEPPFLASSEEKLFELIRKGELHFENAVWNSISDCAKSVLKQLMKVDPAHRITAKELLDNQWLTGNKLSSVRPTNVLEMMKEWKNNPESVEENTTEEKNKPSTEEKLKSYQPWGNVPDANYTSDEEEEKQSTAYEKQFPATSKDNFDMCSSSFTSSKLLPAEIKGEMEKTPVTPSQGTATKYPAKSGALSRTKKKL
Assay: as above
Conditions: compound 0.5 µM; ATP 10 µM

Row | SMILES | residual activity [%]
40 | O=C(Nc1ccc(Cl)cc1)c1ccccc1NCc1ccncc1 | 86.4
41 | Nc1nc(Nc2ccc(S(N)(=O)=O)cc2)nn1C(=S)Nc1c(F)cccc1F | 35.1
42 | O=C1Cc2c([nH]c3ccc([N+](=O)[O-])cc23)-c2ccccc2N1 | 79.9
43 | O=C1Nc2ccccc2/C1=C\c1c(Cl)[nH]c2ccccc12 | 105
44 | O=c1cc(N2CCNCC2)oc2c(-c3ccccc3)cccc12 | 86.1

Target: CAMK2D (human) (UniProt Q13557)
Assay: as above
Conditions: compound 0.5 µM; ATP 10 µM

Row | SMILES | residual activity [%]
45 | O=C(Nc1ccc(Cl)cc1)c1ccccc1NCc1ccncc1 | 101
46 | Nc1nc(Nc2ccc(S(N)(=O)=O)cc2)nn1C(=S)Nc1c(F)cccc1F | 15.6
47 | O=C1Cc2c([nH]c3ccc([N+](=O)[O-])cc23)-c2ccccc2N1 | 79.3
48 | O=C1Nc2ccccc2/C1=C\c1c(Cl)[nH]c2ccccc12 | 86.7
49 | O=c1cc(N2CCNCC2)oc2c(-c3ccccc3)cccc12 | 93.6

Target: PBK (human) (UniProt Q96KB5)
Assay: as above
Conditions: compound 0.5 µM; ATP 10 µM

Row | SMILES | residual activity [%]
50 | O=C(Nc1ccc(Cl)cc1)c1ccccc1NCc1ccncc1 | 88.5
51 | Nc1nc(Nc2ccc(S(N)(=O)=O)cc2)nn1C(=S)Nc1c(F)cccc1F | 105
52 | O=C1Cc2c([nH]c3ccc([N+](=O)[O-])cc23)-c2ccccc2N1 | 85.1
53 | O=C1Nc2ccccc2/C1=C\c1c(Cl)[nH]c2ccccc12 | 102
54 | O=c1cc(N2CCNCC2)oc2c(-c3ccccc3)cccc12 | 124

Target: STK25 (human) (UniProt O00506)
Sequence (O00506 whole entry, looked up): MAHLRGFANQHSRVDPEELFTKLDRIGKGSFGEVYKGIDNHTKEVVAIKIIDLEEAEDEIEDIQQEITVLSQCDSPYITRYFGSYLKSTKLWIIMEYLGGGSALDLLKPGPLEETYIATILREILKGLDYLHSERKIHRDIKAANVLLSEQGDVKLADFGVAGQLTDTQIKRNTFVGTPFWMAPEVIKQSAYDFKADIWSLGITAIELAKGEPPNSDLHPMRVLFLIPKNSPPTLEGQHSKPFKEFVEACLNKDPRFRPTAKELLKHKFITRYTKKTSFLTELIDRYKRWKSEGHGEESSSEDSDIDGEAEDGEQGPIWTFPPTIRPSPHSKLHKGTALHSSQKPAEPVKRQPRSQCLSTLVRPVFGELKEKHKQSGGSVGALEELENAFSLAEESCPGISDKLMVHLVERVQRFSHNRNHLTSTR
Assay: as above
Conditions: compound 0.5 µM; ATP 10 µM

Row | SMILES | residual activity [%]
55 | O=C(Nc1ccc(Cl)cc1)c1ccccc1NCc1ccncc1 | 91.6
56 | Nc1nc(Nc2ccc(S(N)(=O)=O)cc2)nn1C(=S)Nc1c(F)cccc1F | 8.18
57 | O=C1Cc2c([nH]c3ccc([N+](=O)[O-])cc23)-c2ccccc2N1 | 83.6
58 | O=C1Nc2ccccc2/C1=C\c1c(Cl)[nH]c2ccccc12 | 97.7
59 | O=c1cc(N2CCNCC2)oc2c(-c3ccccc3)cccc12 | 116

Target: MINK1 (human) (UniProt Q8N4C8)
Sequence (Q8N4C8 whole entry, looked up): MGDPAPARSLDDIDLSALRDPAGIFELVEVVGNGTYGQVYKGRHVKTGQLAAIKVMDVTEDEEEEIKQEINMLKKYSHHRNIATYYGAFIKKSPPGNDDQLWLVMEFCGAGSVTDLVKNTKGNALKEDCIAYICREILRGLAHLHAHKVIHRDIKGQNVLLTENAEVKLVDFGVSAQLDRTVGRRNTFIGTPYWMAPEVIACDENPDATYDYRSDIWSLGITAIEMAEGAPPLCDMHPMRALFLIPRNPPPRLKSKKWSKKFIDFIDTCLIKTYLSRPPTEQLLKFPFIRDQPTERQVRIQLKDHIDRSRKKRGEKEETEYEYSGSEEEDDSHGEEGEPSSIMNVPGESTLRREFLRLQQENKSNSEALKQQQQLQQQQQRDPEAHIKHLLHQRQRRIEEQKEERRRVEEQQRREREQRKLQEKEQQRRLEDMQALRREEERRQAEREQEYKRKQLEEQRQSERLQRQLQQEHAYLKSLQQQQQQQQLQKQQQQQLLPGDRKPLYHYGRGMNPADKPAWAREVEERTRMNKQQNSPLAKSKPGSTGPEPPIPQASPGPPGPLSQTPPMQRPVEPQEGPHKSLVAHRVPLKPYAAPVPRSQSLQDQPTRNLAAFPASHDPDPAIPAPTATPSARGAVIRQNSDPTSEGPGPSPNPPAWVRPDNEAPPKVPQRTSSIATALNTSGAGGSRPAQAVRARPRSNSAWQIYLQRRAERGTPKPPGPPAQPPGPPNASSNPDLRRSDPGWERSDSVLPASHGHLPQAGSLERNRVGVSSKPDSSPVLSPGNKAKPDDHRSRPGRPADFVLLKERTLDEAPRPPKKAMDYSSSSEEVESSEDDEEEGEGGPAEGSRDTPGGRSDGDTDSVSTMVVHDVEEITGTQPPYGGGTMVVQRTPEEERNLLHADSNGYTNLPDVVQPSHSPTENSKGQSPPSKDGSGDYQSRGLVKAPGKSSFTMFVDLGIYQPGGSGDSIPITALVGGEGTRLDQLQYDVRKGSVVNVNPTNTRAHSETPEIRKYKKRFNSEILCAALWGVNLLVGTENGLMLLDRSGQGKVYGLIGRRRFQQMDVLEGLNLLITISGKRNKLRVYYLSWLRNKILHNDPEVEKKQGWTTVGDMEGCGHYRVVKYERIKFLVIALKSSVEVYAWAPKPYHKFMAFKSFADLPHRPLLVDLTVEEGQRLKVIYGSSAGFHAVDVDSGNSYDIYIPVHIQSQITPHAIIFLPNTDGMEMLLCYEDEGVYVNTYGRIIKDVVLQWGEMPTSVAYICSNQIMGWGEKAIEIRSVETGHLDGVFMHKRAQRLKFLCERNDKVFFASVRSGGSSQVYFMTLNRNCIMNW
Assay: as above
Conditions: compound 0.5 µM; ATP 10 µM

Row | SMILES | residual activity [%]
60 | O=C(Nc1ccc(Cl)cc1)c1ccccc1NCc1ccncc1 | 96.9
61 | Nc1nc(Nc2ccc(S(N)(=O)=O)cc2)nn1C(=S)Nc1c(F)cccc1F | 3.06
62 | O=C1Cc2c([nH]c3ccc([N+](=O)[O-])cc23)-c2ccccc2N1 | 20.4
63 | O=C1Nc2ccccc2/C1=C\c1c(Cl)[nH]c2ccccc12 | 94.9
64 | O=c1cc(N2CCNCC2)oc2c(-c3ccccc3)cccc12 | 97

Target: STK39 (human) (UniProt Q9UEW8)
Assay: as above
Conditions: compound 0.5 µM; ATP 10 µM

Row | SMILES | residual activity [%]
65 | O=C(Nc1ccc(Cl)cc1)c1ccccc1NCc1ccncc1 | 94.7
66 | Nc1nc(Nc2ccc(S(N)(=O)=O)cc2)nn1C(=S)Nc1c(F)cccc1F | 76.5
67 | O=C1Cc2c([nH]c3ccc([N+](=O)[O-])cc23)-c2ccccc2N1 | 77.5
68 | O=C1Nc2ccccc2/C1=C\c1c(Cl)[nH]c2ccccc12 | 104
69 | O=c1cc(N2CCNCC2)oc2c(-c3ccccc3)cccc12 | 88.5

Target: MAPK3 (human) (UniProt P27361)
Assay: as above
Conditions: compound 0.5 µM; ATP 10 µM

Row | SMILES | residual activity [%]
70 | O=C(Nc1ccc(Cl)cc1)c1ccccc1NCc1ccncc1 | 102
71 | Nc1nc(Nc2ccc(S(N)(=O)=O)cc2)nn1C(=S)Nc1c(F)cccc1F | 78.9
72 | O=C1Cc2c([nH]c3ccc([N+](=O)[O-])cc23)-c2ccccc2N1 | 93.5
73 | O=C1Nc2ccccc2/C1=C\c1c(Cl)[nH]c2ccccc12 | 109
74 | O=c1cc(N2CCNCC2)oc2c(-c3ccccc3)cccc12 | 119

Target: CAMK2A (human) (UniProt Q9UQM7)
Assay: as above
Conditions: compound 0.5 µM; ATP 10 µM

Row | SMILES | residual activity [%]
75 | O=C(Nc1ccc(Cl)cc1)c1ccccc1NCc1ccncc1 | 99.9
76 | Nc1nc(Nc2ccc(S(N)(=O)=O)cc2)nn1C(=S)Nc1c(F)cccc1F | 14.3
77 | O=C1Cc2c([nH]c3ccc([N+](=O)[O-])cc23)-c2ccccc2N1 | 88.4
78 | O=C1Nc2ccccc2/C1=C\c1c(Cl)[nH]c2ccccc12 | 103
79 | O=c1cc(N2CCNCC2)oc2c(-c3ccccc3)cccc12 | 104

Target: FGFR4 (human) (UniProt P22455)
Sequence (P22455 whole entry, looked up): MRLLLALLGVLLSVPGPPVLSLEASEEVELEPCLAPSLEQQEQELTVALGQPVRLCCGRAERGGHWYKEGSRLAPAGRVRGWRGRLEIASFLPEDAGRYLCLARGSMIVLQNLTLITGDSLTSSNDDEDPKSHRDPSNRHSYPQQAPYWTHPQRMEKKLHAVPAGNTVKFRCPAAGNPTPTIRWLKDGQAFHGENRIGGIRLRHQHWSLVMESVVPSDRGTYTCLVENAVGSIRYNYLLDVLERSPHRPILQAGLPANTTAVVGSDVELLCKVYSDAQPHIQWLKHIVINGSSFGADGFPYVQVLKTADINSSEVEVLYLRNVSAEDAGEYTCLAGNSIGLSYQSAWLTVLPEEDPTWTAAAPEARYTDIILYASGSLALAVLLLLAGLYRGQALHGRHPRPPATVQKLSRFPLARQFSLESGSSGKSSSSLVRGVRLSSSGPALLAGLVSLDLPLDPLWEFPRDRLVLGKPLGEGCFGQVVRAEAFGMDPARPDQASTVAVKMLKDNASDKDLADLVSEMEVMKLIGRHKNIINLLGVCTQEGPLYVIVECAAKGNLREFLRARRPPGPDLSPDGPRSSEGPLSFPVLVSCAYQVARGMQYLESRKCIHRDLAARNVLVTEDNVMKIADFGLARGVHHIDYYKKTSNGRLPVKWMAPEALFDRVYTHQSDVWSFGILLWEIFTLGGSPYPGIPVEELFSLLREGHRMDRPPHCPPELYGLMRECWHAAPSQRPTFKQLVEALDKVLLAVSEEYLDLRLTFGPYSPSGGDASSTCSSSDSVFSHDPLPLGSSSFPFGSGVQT
Assay: as above
Conditions: compound 0.5 µM; ATP 10 µM

Row | SMILES | residual activity [%]
80 | O=C(Nc1ccc(Cl)cc1)c1ccccc1NCc1ccncc1 | 84.1
81 | Nc1nc(Nc2ccc(S(N)(=O)=O)cc2)nn1C(=S)Nc1c(F)cccc1F | 32.2
82 | O=C1Cc2c([nH]c3ccc([N+](=O)[O-])cc23)-c2ccccc2N1 | 90.6
83 | O=C1Nc2ccccc2/C1=C\c1c(Cl)[nH]c2ccccc12 | 96.9
84 | O=c1cc(N2CCNCC2)oc2c(-c3ccccc3)cccc12 | 106

Target: NLK (human) (UniProt Q9UBE8)
Assay: as above
Conditions: compound 0.5 µM; ATP 10 µM

Row | SMILES | residual activity [%]
85 | O=C(Nc1ccc(Cl)cc1)c1ccccc1NCc1ccncc1 | 87.2
86 | Nc1nc(Nc2ccc(S(N)(=O)=O)cc2)nn1C(=S)Nc1c(F)cccc1F | 45.1
87 | O=C1Cc2c([nH]c3ccc([N+](=O)[O-])cc23)-c2ccccc2N1 | 95.5
88 | O=C1Nc2ccccc2/C1=C\c1c(Cl)[nH]c2ccccc12 | 107
89 | O=c1cc(N2CCNCC2)oc2c(-c3ccccc3)cccc12 | 98.8

Target: KIT (human) (UniProt P10721)
Assay: as above
Conditions: compound 0.5 µM; ATP 10 µM

Row | SMILES | residual activity [%]
90 | O=C(Nc1ccc(Cl)cc1)c1ccccc1NCc1ccncc1 | 33.6
91 | Nc1nc(Nc2ccc(S(N)(=O)=O)cc2)nn1C(=S)Nc1c(F)cccc1F | 78.4
92 | O=C1Cc2c([nH]c3ccc([N+](=O)[O-])cc23)-c2ccccc2N1 | 83.7
93 | O=C1Nc2ccccc2/C1=C\c1c(Cl)[nH]c2ccccc12 | 90.2
94 | O=c1cc(N2CCNCC2)oc2c(-c3ccccc3)cccc12 | 101

Target: JAK2 JH1 JH2 (human) (UniProt O60674)
Assay: as above
Conditions: compound 0.5 µM; ATP 10 µM

Row | SMILES | residual activity [%]
95 | O=C(Nc1ccc(Cl)cc1)c1ccccc1NCc1ccncc1 | 96.5
96 | Nc1nc(Nc2ccc(S(N)(=O)=O)cc2)nn1C(=S)Nc1c(F)cccc1F | 3.16
97 | O=C1Cc2c([nH]c3ccc([N+](=O)[O-])cc23)-c2ccccc2N1 | 103
98 | O=C1Nc2ccccc2/C1=C\c1c(Cl)[nH]c2ccccc12 | 103
99 | O=c1cc(N2CCNCC2)oc2c(-c3ccccc3)cccc12 | 104
